Drawing on patent US9340590B2 (priority 2011, dated 2016), this text covers IC50 for eight compounds.

Molecules are shown by their SMILES. Where two headings read alike, the source gives them in different places. Positions of bridges follow the written chain, without caps; N, C: chain ends. Residues, ends and D or L forms follow the SMILES beside them. Some results are limits rather than exact numbers.

Assay in all cases: cell-based
The target in one test is hNav1.3 (Homo sapiens, UniProt Q9NY46). Particulars: IonWorks Quattro, read-out: IWQ Use Nav1.3.
The next test addresses hNav1.5 (Homo sapiens, UniProt Q14524). Particulars: IonWorks Quattro, read-out: IWQ Use Nav1.5.
The target in a further test is hNav1.7 (Homo sapiens, UniProt Q15858). It is filed as cell-based. Particulars: IonWorks Quattro, read-out: IWQ Use Nav1.7.
Setting [1] is: clamped to −110 mV, depolarized to −10 mV, 5 min after compound, n=2.

hNav1.7, sequence (Q15858 whole entry, looked up): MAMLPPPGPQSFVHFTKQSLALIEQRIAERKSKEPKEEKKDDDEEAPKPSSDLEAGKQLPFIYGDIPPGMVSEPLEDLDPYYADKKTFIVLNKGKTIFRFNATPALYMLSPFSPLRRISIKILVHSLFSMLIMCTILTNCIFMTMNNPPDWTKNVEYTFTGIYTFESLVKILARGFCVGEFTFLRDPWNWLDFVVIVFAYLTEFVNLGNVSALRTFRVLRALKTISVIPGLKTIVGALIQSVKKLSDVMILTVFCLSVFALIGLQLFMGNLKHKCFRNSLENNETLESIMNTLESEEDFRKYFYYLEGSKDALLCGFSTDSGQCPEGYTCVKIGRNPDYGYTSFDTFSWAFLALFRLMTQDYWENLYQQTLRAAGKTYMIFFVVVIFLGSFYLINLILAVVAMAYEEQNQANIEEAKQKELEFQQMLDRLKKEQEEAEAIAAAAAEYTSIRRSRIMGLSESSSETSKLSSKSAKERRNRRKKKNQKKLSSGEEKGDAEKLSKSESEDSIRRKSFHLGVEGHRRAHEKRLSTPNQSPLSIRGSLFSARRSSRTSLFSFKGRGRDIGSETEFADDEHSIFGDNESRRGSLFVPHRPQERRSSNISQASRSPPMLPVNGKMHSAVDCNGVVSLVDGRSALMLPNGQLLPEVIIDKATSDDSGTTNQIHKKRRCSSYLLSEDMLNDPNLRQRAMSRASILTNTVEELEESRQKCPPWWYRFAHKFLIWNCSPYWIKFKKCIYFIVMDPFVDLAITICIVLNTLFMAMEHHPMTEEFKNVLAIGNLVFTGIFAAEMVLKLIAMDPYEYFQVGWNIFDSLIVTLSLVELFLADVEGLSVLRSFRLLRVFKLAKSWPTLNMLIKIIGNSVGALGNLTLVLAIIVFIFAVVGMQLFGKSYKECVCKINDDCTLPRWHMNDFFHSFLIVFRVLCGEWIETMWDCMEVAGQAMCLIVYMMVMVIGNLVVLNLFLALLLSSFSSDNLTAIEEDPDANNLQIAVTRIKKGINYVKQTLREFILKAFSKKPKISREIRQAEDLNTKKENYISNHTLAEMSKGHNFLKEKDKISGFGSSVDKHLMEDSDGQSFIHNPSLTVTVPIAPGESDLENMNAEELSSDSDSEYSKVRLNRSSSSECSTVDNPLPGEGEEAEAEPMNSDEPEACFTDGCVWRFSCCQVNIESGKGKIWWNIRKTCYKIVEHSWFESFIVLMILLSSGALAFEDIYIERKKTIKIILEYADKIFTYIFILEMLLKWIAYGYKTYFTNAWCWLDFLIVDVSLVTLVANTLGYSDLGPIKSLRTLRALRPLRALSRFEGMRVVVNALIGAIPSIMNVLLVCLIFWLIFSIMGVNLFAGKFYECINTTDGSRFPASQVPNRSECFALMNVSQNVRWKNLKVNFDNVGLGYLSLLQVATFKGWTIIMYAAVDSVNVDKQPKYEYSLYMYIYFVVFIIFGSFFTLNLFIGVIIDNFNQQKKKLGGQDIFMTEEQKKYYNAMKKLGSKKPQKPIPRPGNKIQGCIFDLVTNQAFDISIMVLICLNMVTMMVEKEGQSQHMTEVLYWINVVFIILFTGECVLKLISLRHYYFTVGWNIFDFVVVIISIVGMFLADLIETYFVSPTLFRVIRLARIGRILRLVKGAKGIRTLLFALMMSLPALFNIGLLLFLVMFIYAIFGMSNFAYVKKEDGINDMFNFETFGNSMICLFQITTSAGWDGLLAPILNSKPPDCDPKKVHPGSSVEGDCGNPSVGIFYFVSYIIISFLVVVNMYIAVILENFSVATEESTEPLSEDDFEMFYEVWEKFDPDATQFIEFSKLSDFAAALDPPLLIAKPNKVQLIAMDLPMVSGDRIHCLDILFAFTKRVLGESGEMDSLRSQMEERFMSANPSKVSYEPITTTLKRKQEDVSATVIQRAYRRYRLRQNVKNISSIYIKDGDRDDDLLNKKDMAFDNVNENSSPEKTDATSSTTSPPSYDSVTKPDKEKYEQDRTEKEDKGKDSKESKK
hNav1.3, sequence (Q9NY46 whole entry, looked up): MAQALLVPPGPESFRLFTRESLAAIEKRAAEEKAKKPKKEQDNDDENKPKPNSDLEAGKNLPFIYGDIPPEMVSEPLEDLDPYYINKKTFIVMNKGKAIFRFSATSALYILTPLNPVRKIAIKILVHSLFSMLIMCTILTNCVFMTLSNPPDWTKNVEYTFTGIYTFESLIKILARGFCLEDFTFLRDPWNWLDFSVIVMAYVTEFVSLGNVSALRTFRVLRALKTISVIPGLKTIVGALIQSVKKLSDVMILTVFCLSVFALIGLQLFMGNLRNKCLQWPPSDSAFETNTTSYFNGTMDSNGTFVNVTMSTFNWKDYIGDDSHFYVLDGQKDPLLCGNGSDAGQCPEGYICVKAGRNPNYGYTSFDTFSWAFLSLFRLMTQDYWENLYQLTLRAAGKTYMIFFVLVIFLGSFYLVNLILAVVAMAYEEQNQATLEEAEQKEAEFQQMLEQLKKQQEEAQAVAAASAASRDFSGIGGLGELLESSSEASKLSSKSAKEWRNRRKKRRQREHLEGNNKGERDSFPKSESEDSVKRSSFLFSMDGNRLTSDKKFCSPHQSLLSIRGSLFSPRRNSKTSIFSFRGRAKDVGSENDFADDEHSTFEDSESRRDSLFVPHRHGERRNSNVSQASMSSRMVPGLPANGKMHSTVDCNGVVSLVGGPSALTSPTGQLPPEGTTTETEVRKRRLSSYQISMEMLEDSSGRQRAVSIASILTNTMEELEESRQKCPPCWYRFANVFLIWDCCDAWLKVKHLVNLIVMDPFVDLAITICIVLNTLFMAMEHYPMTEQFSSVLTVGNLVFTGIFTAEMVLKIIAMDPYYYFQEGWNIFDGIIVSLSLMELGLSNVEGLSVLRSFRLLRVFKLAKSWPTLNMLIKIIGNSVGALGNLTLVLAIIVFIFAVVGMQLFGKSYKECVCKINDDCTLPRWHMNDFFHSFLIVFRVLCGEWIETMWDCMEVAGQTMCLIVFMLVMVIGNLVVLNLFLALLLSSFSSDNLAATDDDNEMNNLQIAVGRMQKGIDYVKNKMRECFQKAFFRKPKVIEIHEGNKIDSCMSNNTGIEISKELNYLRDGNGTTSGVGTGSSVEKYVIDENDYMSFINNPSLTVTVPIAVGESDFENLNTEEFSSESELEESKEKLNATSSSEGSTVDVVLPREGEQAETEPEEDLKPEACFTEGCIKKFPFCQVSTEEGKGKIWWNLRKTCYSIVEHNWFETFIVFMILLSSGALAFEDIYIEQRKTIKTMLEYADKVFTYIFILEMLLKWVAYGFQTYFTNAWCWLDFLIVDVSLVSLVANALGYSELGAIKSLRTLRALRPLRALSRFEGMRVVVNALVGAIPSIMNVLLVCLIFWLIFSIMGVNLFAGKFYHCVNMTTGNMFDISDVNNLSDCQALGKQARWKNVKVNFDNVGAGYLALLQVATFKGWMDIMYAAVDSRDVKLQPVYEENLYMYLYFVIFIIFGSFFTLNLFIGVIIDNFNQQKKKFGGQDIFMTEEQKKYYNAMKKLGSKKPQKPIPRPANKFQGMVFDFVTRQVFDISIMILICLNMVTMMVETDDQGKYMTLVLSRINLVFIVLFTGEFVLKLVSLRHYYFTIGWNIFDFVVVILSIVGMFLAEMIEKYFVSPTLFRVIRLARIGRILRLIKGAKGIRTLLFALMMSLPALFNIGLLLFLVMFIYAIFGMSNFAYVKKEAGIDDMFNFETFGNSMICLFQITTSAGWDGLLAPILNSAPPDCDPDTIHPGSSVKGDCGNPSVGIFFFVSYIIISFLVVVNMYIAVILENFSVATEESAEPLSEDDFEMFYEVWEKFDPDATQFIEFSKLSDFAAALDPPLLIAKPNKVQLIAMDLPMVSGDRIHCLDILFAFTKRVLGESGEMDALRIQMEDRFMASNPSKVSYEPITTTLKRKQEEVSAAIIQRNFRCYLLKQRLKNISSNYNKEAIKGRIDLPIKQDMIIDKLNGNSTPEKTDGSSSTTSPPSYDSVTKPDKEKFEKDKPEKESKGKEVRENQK

On to `CC[C@H](C)[C@@H]1NC(=O)[C@@H]2CSSC[C@@H]3NC(=O)[C@H](C(C)C)NC(=O)[C@H](CC(C)C)NC(=O)[C@H](CC(N)=O)NC(=O)[C@@H]4CCCN4C(=O)[C@H](CCCNC(=N)N)NC(=O)[C@H](CSSC[C@H](NC(=O)[C@@H](N)CC(=O)O)C(=O)N[C@@H](CC(C)C)C(=O)NCC(=O)N[C@@H](Cc4ccccc4)C(=O)N[C@@H](C(C)C)C(=O)N[C@@H](CCCNC(=N)N)C(=O)N[C@@H](CCCCN)C(=O)N2)NC(=O)[C@H](CSSC[C@@H](C(=O)N[C@@H](CCCCN)C(=O)N[C@@H](Cc2ccc(O)cc2)C(=O)N[C@H](C(=O)N[C@@H](Cc2ccccc2)C(N)=O)C(C)C)NC(=O)[C@H](Cc2c[nH]c4ccccc24)NC(=O)[C@H](CCCCN)NC(=O)[C@H](Cc2c[nH]cn2)NC(=O)[C@H]([C@@H](C)O)NC(=O)[C@H](CCCNC(=N)N)NC(=O)[C@H](CO)NC3=O)NC(=O)[C@H](CCCCN)NC(=O)[C@H](CC(=O)O)NC(=O)[C@H](CC(N)=O)NC(=O)[C@H](CC(=O)O)NC(=O)[C@@H]2CCCN2C1=O` [SEQ ID NO: 287] (H-DCLGFVRKCIPDNDKCCRPNLVCSRTHKWCKYVF-NH2; disulfide 2-17, 9-23, 16-30), for which the IC50 amounted to 80 nM on hNav1.3 (setting [1]), 9230 nM at hNav1.5 (setting [1]) and 90 nM at hNav1.7 (setting [1]).
As for `CC[C@H](C)[C@@H]1NC(=O)[C@@H]2CSSC[C@@H]3NC(=O)[C@H](C(C)C)NC(=O)[C@H](CC(C)C)NC(=O)[C@H](CC(N)=O)NC(=O)[C@@H]4CCCN4C(=O)[C@H](CCCNC(=N)N)NC(=O)[C@H](CSSC[C@H](NC(=O)[C@@H](N)CC(=O)O)C(=O)N[C@@H](CC(C)C)C(=O)NCC(=O)N[C@@H](Cc4ccccc4)C(=O)N[C@@H](c4ccccc4)C(=O)N[C@@H](CCCNC(=N)N)C(=O)N[C@@H](CCCCN)C(=O)N2)NC(=O)[C@H](CSSC[C@@H](C(=O)N[C@@H](CCCCN)C(=O)N[C@@H](Cc2ccc(O)cc2)C(=O)N[C@H](C(=O)N[C@@H](Cc2ccccc2)C(N)=O)C(C)C)NC(=O)[C@H](Cc2c[nH]c4ccccc24)NC(=O)[C@H](CCCCN)NC(=O)[C@H](Cc2c[nH]cn2)NC(=O)[C@H]([C@@H](C)O)NC(=O)[C@H](CCCNC(=N)N)NC(=O)[C@H](CO)NC3=O)NC(=O)[C@H](CCCCN)NC(=O)[C@H](CC(=O)O)NC(=O)[C@H](CC(N)=O)NC(=O)[C@H](CC(=O)O)NC(=O)[C@@H]2CCCN2C1=O` [SEQ ID NO: 288], the IC50 at hNav1.3 (setting [1]) was 90 nM; on hNav1.5 (setting [1]), > 5000 nM; at hNav1.7 (setting [1]), 150 nM.
On the same counts, the results for `CC[C@H](C)[C@@H]1NC(=O)[C@@H]2CSSC[C@@H]3NC(=O)[C@H](C(C)C)NC(=O)[C@H](CC(C)C)NC(=O)[C@H](CC(N)=O)NC(=O)[C@@H]4CCCN4C(=O)[C@H](CCCNC(=N)N)NC(=O)[C@H](CSSC[C@H](NC(=O)[C@@H](N)CC(=O)O)C(=O)N[C@@H](CC(C)C)C(=O)NCC(=O)N[C@@H](Cc4ccccc4)C(=O)N(C)[C@@H](Cc4c[nH]c5ccccc45)C(=O)N[C@@H](CCCNC(=N)N)C(=O)N[C@@H](CCCCN)C(=O)N2)NC(=O)[C@H](CSSC[C@@H](C(=O)N[C@@H](CCCCN)C(=O)N[C@@H](Cc2ccc(O)cc2)C(=O)N[C@H](C(=O)N[C@@H](Cc2ccccc2)C(N)=O)C(C)C)NC(=O)[C@H](Cc2c[nH]c4ccccc24)NC(=O)[C@H](CCCCN)NC(=O)[C@H](Cc2c[nH]cn2)NC(=O)[C@H]([C@@H](C)O)NC(=O)[C@H](CCCNC(=N)N)NC(=O)[C@H](CO)NC3=O)NC(=O)[C@H](CCCCN)NC(=O)[C@H](CC(=O)O)NC(=O)[C@H](CC(N)=O)NC(=O)[C@H](CC(=O)O)NC(=O)[C@@H]2CCCN2C1=O` [SEQ ID NO: 289] are 240 nM, 21400 nM and 140 nM.
The like results for `CC[C@H](C)[C@@H]1NC(=O)[C@@H]2CSSC[C@@H]3NC(=O)[C@H](C(C)C)NC(=O)[C@H](CC(C)C)NC(=O)[C@H](CC(N)=O)NC(=O)[C@@H]4CCCN4C(=O)[C@H](CCCNC(=N)N)NC(=O)[C@H](CSSC[C@H](NC(=O)[C@@H](N)CC(=O)O)C(=O)N[C@@H](CC(C)C)C(=O)NCC(=O)N[C@@H](Cc4ccccc4)C(=O)N(C)[C@@H](Cc4ccccc4)C(=O)N[C@@H](CCCNC(=N)N)C(=O)N[C@@H](CCCCN)C(=O)N2)NC(=O)[C@H](CSSC[C@@H](C(=O)N[C@@H](CCCCN)C(=O)N[C@@H](Cc2ccc(O)cc2)C(=O)N[C@H](C(=O)N[C@@H](Cc2ccccc2)C(N)=O)C(C)C)NC(=O)[C@H](Cc2c[nH]c4ccccc24)NC(=O)[C@H](CCCCN)NC(=O)[C@H](Cc2c[nH]cn2)NC(=O)[C@H]([C@@H](C)O)NC(=O)[C@H](CCCNC(=N)N)NC(=O)[C@H](CO)NC3=O)NC(=O)[C@H](CCCCN)NC(=O)[C@H](CC(=O)O)NC(=O)[C@H](CC(N)=O)NC(=O)[C@H](CC(=O)O)NC(=O)[C@@H]2CCCN2C1=O` [SEQ ID NO: 290] were, in that order, 140 nM, 10600 nM and 240 nM.
The like results for `CC[C@H](C)[C@@H]1NC(=O)[C@@H]2CSSC[C@@H]3NC(=O)[C@H](C(C)C)NC(=O)[C@H](CC(C)C)NC(=O)[C@H](CC(N)=O)NC(=O)[C@@H]4CCCN4C(=O)[C@H](CCCNC(=N)N)NC(=O)[C@H](CSSC[C@H](NC(=O)[C@@H](N)CC(=O)O)C(=O)N[C@@H](CC(C)C)C(=O)NCC(=O)N[C@@H](Cc4ccccc4)C(=O)N[C@@H](Cc4cn(C)c5ccccc45)C(=O)N[C@@H](CCCNC(=N)N)C(=O)N[C@@H](CCCCN)C(=O)N2)NC(=O)[C@H](CSSC[C@@H](C(=O)N[C@@H](CCCCN)C(=O)N[C@@H](Cc2ccc(O)cc2)C(=O)N[C@H](C(=O)N[C@@H](Cc2ccccc2)C(N)=O)C(C)C)NC(=O)[C@H](Cc2c[nH]c4ccccc24)NC(=O)[C@H](CCCCN)NC(=O)[C@H](Cc2c[nH]cn2)NC(=O)[C@H]([C@@H](C)O)NC(=O)[C@H](CCCNC(=N)N)NC(=O)[C@H](CO)NC3=O)NC(=O)[C@H](CCCCN)NC(=O)[C@H](CC(=O)O)NC(=O)[C@H](CC(N)=O)NC(=O)[C@H](CC(=O)O)NC(=O)[C@@H]2CCCN2C1=O` [SEQ ID NO: 292] were, in that order, 30 nM, 5660 nM and 40 nM.
With `CC[C@H](C)[C@@H]1NC(=O)[C@@H]2CSSC[C@@H]3NC(=O)[C@H](C(C)C)NC(=O)[C@H](CC(C)C)NC(=O)[C@H](CC(N)=O)NC(=O)[C@@H]4CCCN4C(=O)[C@H](CCCNC(=N)N)NC(=O)[C@H](CSSC[C@H](NC(=O)[C@@H](N)CC(=O)O)C(=O)N[C@@H](CC(C)C)C(=O)NCC(=O)N[C@@H](Cc4ccccc4)C(=O)N[C@@H](Cc4ccc(C(=O)O)cc4)C(=O)N[C@@H](CCCNC(=N)N)C(=O)N[C@@H](CCCCN)C(=O)N2)NC(=O)[C@H](CSSC[C@@H](C(=O)N[C@@H](CCCCN)C(=O)N[C@@H](Cc2ccc(O)cc2)C(=O)N[C@H](C(=O)N[C@@H](Cc2ccccc2)C(N)=O)C(C)C)NC(=O)[C@H](Cc2c[nH]c4ccccc24)NC(=O)[C@H](CCCCN)NC(=O)[C@H](Cc2c[nH]cn2)NC(=O)[C@H]([C@@H](C)O)NC(=O)[C@H](CCCNC(=N)N)NC(=O)[C@H](CO)NC3=O)NC(=O)[C@H](CCCCN)NC(=O)[C@H](CC(=O)O)NC(=O)[C@H](CC(N)=O)NC(=O)[C@H](CC(=O)O)NC(=O)[C@@H]2CCCN2C1=O` [SEQ ID NO: 293], the results for the IC50 at hNav1.3 (setting [1]), at hNav1.5 (setting [1]) and at hNav1.7 (setting [1]) were 13800 nM, 11100 nM and 15800 nM, respectively.
`CC[C@H](C)[C@H](NC(=O)[C@H](CCC(=O)O)NC(=O)[C@H](Cc1ccc(O)cc1)NC(=O)[C@H](CCCCN)NC(=O)[C@@H]1CSSC[C@@H]2NC(=O)[C@H](CCCCN)NC(=O)[C@H](CC(=O)O)NC(=O)[C@H](CC(N)=O)NC(=O)[C@H](CC(=O)O)NC(=O)[C@@H]3CCCN3C(=O)[C@H](CO)NC(=O)[C@@H]3CSSC[C@H](NC(=O)[C@H](C(C)C)NC(=O)[C@H](CC(C)C)NC(=O)[C@H](CC(N)=O)NC(=O)[C@@H]4CCCN4C(=O)[C@H](CCCNC(=N)N)NC(=O)[C@H](CSSC[C@H](NC(=O)[C@@H](N)CC(=O)O)C(=O)N[C@@H](CC(C)C)C(=O)NCC(=O)N[C@@H](Cc4ccccc4)C(=O)N[C@@H](CCSC)C(=O)N[C@@H](CCCNC(=N)N)C(=O)N[C@@H](CCCCN)C(=O)N3)NC2=O)C(=O)N[C@@H](CO)C(=O)N[C@@H](CCCNC(=N)N)C(=O)N[C@@H](CCCCN)C(=O)N[C@@H](Cc2c[nH]cn2)C(=O)N[C@@H](CCCCN)C(=O)N[C@@H](Cc2c[nH]c3ccccc23)C(=O)N1)C(N)=O` [SEQ ID NO: 467] (H-DCLGFMRKCSPDNDKCCRPNLVCSRKHKWCKYEI-NH2; disulfide 2-17, 9-23, 16-30): the values for the IC50 on hNav1.3 (setting [1]), at hNav1.5 (setting [1]) and on hNav1.7 (setting [1]) were 1150 nM, 7210 nM and 4340 nM, respectively.
Consider `CC[C@H](C)[C@@H]1NC(=O)[C@@H]2CSSC[C@@H]3NC(=O)[C@H](C(C)C)NC(=O)[C@H](CC(C)C)NC(=O)[C@H](CC(N)=O)NC(=O)[C@@H]4CCCN4C(=O)[C@H](CCCNC(=N)N)NC(=O)[C@H](CSSC[C@H](NC(=O)[C@@H](N)CC(=O)O)C(=O)N[C@@H](CC(C)C)C(=O)NCC(=O)N[C@@H](Cc4ccccc4)C(=O)N[C@@H](CCSC)C(=O)N[C@@H](CCCNC(=N)N)C(=O)N[C@@H](C)C(=O)N2)NC(=O)[C@H](CSSC[C@@H](C(=O)N[C@@H](CCCCN)C(=O)N[C@@H](Cc2ccc(O)cc2)C(=O)N[C@H](C(=O)N[C@@H](Cc2ccccc2)C(N)=O)C(C)C)NC(=O)[C@H](Cc2c[nH]c4ccccc24)NC(=O)[C@H](CCCCN)NC(=O)[C@H](Cc2cnc[nH]2)NC(=O)[C@H]([C@@H](C)O)NC(=O)[C@H](CCCNC(=N)N)NC(=O)[C@H](CO)NC3=O)NC(=O)[C@H](CCCCN)NC(=O)[C@H](CC(=O)O)NC(=O)[C@H](CC(N)=O)NC(=O)[C@H](CC(=O)O)NC(=O)[C@@H]2CCCN2C1=O` [[Ala8]GpTx-1(1-34)] (H-DCLGFMRACIPDNDKCCRPNLVCSRTHKWCKYVF-NH2; disulfide 2-17, 9-23, 16-30), for which the IC50 on hNav1.3 (use-dependent block, hNav1.3) worked out at 410 nM; on hNav1.5 (use-dependent block, hNav1.5), 16800 nM; on hNav1.7 (use-dependent block, hNav1.7), 490 nM.
